Data: patent publication US20040053859A1, “Preventive or therapeutic agent for cancer containing cyanidin compound as active ingredient” (priority 2000, published 2004)

Key:
[1] = system: large intestine cancer; experiment: carcinostatic effect against PhIP-promoted, DMH-initiated large intestine cancer in rats (macroscopic pathologic examination); assay type: in vivo, F344/DuCrj male rats; details: DMH 20 mg/kg s.c. once a week for 4 weeks, then feed for 32 weeks, group 2 PhIP 200 ppm only, group 3 PhIP 200 ppm + PCC 5%
From the text: Using DMH (1,2-dimethylhydradinedihydrochloride, manufactured by Tokyo Kasei Kogyo Co., Ltd., Lot. FIH01-UR) as an initiator of large intestine cancer, the carcinostatic effect of a purple corn pigment (manufactured. by San-Ei gen F.F.I., Inc. Lot. 990519, containing 10.8% of the compound of the formula (III) and 6.5% of the compound of the formula (IV), hereinafter referred to as PCC) was examined against the carcinogenesis promoting effect of PhIP (2-amino-1-methyl-6-phenylimidazo [4,5-b] pyridine (Toronto Research Chemical Inc., Lot. 5-YCX-55-2).
(§1) F344/DuCrj male rats (Charles River Japan Inc.) were used as test animals. The rats were subjected to a subcutaneous administration of DMH of 20 mg/kg once a week, for 4 weeks. They were divided into a group 1 fed with a basic feed (labo MR stock, manufactured by Nihon Nosan Kogyo KK), a group 2 fed with PhIP (200 ppm) only, and a group 3 fed with a mixture of PhIP (200 ppm) and PCC (5%). The rats (20 per group) were allowed to take the feed freely for 32 weeks.
The rats alive at the end of the experiment were fasted and then bled for euthanasia under deep anesthesia. They were dissected together with the dead rat of the group 2 to macroscopically examine tumorigenesis in various organs in the thoracic cavity and the abdominal cavity.
In every rat, tumorigenesis was not observed in other organs than the large intestine (cecum, colon, rectum). The tumor generated in the large intestine was recognized as cancer by the macroscopic pathologic examination.

[2] = survival, clinical manifestation, weight and water intake of rats during feeding of test substances; assay type: in vivo, F344/DuCrj male rats
Protocol: as §1
With an electronic balance (LC2200, manufactured by Sartorius), the weight of each rat was measured once a week until 14th week after initiation of the experiment, and thereafter measured once every two weeks. The feed intake amount of each rat was also measured once a week until 14th week, and thereafter measured once every other week in the same manner as the weight measurement, except that the feed intake amount for two days was measured.
With an electronic balance (LC2200, manufactured by Sartorius), an intake amount of water for two days was measured once a week until 14th week, and thereafter measured once every other week.

Cn1c(N)nc2ncc(-c3ccccc3)cc21 [PhIP, 2-amino-1-methyl-6-phenylimidazo[4,5-b]pyridine]
Number of rats having tumor ([1]; 20 rats per group): 17 | Numbers of tumors ([1]; 20 rats per group): 48 | Number of tumors/number of rats having tumor [1]: 2.82 | water intake amount ([2]; 5th and 6th weeks, group 2 PhIP 200 ppm, group 3 PhIP 200 ppm + PCC 5%, group 1 about 20): about 19 g/animal/day | survival until the end of the experiment ([2]; 32 weeks feeding after DMH, 20 rats per group): one in the group 2 died during the experiment | weight of the rats reached during administration of test substances (from about 230 g) ([2]; group 2 PhIP 200 ppm, group 3 PhIP 200 ppm + PCC 5%, group 1 basic feed about 360 g): ~315 g
